Experimental data published in PubChem BioAssay AID330 (DTP/NCI, 2004).
Where “and” joins values, the source holds several entries; their conditions need not be identical. Equal entries are not always repeated. Inconclusive results and toxic doses are left out. Rule for the calls: active = survival T/C of 150% or more; inactive = T/C below 125% in these data.

System: P388 leukemia ip, CD2F1 mice, survival T/C
Experiment: NCI In Vivo Anticancer Drug Screen. Data for tumor model P388 Leukemia (intraperitoneal) in CD2F1 (CDF1) mice
Details: endpoint: median survival time, higher = longer survival
Summary of the method: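 Mice carrying the transplanted tumor received test compound or vehicle. Survival was recorded in each group, and the value is the treated-group measurement divided by that of the vehicle-treated control group.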

[1] = dose: 50.0 mg/kg/injection, schedule: Q01DX005 (ip), vehicle: Klucel (hydroxypropylcellulose) (HPC)
[2] = dose: 100.0 mg/kg/injection, schedule: Q01DX005 (ip), vehicle: Klucel (hydroxypropylcellulose) (HPC)
[3] = dose: 200.0 mg/kg/injection, schedule: Q01DX005 (ip), vehicle: Klucel (hydroxypropylcellulose) (HPC)
[4] = dose: 25.0 mg/kg/injection, schedule: Q01DX009 (ip), vehicle: other
[5] = dose: 50.0 mg/kg/injection, schedule: Q01DX009 (ip), vehicle: other
[6] = dose: 100.0 mg/kg/injection, schedule: Q01DX009 (ip), vehicle: other
[7] = dose: 50.0 mg/kg/injection, schedule: Q01DX009 (ip), vehicle: saline
[8] = dose: 100.0 mg/kg/injection, schedule: Q01DX009 (ip), vehicle: saline
[9] = dose: 50.0 mg/kg/injection, schedule: Q01DX009 (ip), vehicle: saline with Tween-80
[10] = dose: 200.0 mg/kg/injection, schedule: Q01DX009 (ip), vehicle: saline with Tween-80

Measured: T/C

CCCCCCCCCCCCCC(=O)OC1C(C)C2(O)C(C=C(CO)CC3(O)C(O)C(C)=CC32)C2C(C)(C)C12OC(C)=O (centres undefined)
inactive: dose: 0.12 mg/kg/injection, schedule: Q01DX009 (ip), vehicle: saline 106 % of control | dose: 0.25 mg/kg/injection, schedule: Q01DX009 (ip), vehicle: saline 101 % of control | dose: 0.5 mg/kg/injection, schedule: Q01DX009 (ip), vehicle: saline 111 % of control | dose: 1.0 mg/kg/injection, schedule: Q01DX009 (ip), vehicle: saline 99 % of control | dose: 2.0 mg/kg/injection, schedule: Q01DX009 (ip), vehicle: saline 101 % of control

Cc1ccc(CCNC(=O)c2c3nc4c(C(=O)NCCc5ccc(C)cc5)cccc4oc-3cc(=O)c2N)cc1
inactive: dose: 50.0 mg/kg/injection, schedule: Q01DX005 (ip), vehicle: saline with Tween-80 93 % of control | dose: 100.0 mg/kg/injection, schedule: Q01DX005 (ip), vehicle: saline with Tween-80 87 % of control | dose: 200.0 mg/kg/injection, schedule: Q01DX005 (ip), vehicle: saline with Tween-80 100 % of control

CC1=NN(C2=NS(=O)(=O)c3ccccc3N2c2ccccc2)C(=O)C1
inactive: dose: 100.0 mg/kg/injection, schedule: Q04DX002 (ip), vehicle: saline with Tween-80 108 % of control | dose: 200.0 mg/kg/injection, schedule: Q04DX002 (ip), vehicle: saline with Tween-80 106 % of control | dose: 400.0 mg/kg/injection, schedule: Q04DX002 (ip), vehicle: saline with Tween-80 97 % of control

Fc1ccc(N2C(c3ccccc3)=N[C@@H](N3CCOCC3)[C@@H]2N2CCOCC2)cc1
inactive: [1] 102 % of control | [2] 100 % of control | [3] 93 % of control

Nc1ccc2[nH]c3cnccc3c2c1
inactive: dose: 12.5 mg/kg/injection, schedule: Q01DX009 (ip), vehicle: other 103 % of control | [4] 108 % of control | [5] 103 % of control | [6] 103 % of control

COc1ccc2cc1-c1cc(ccc1O)CCC(O)CC1CCCC(CC(OC(C)=O)CC2)N1 (centres undefined)
inactive: dose: 15.0 mg/kg/injection, schedule: Q01DX009 (ip), vehicle: Klucel (hydroxypropylcellulose) (HPC) 107 % of control | dose: 30.0 mg/kg/injection, schedule: Q01DX009 (ip), vehicle: Klucel (hydroxypropylcellulose) (HPC) 100 % of control | dose: 60.0 mg/kg/injection, schedule: Q01DX009 (ip), vehicle: Klucel (hydroxypropylcellulose) (HPC) 100 % of control

Nc1nc2ncc(CN(C(=O)CCl)c3ccc(C(=O)NC(CCC(=O)O)C(=O)O)cc3)nc2c(=O)[nH]1 (centres undefined)
inactive: dose: 50.0 mg/kg/injection, schedule: Q01DX009 (ip), vehicle: Klucel (hydroxypropylcellulose) (HPC) 95 % of control | dose: 100.0 mg/kg/injection, schedule: Q01DX009 (ip), vehicle: Klucel (hydroxypropylcellulose) (HPC) 107 % of control | dose: 200.0 mg/kg/injection, schedule: Q01DX009 (ip), vehicle: Klucel (hydroxypropylcellulose) (HPC) 108 % of control

O=[N+]([O-])c1ccc(N/N=C(/C(=N/Nc2ccc([N+](=O)[O-])cc2)c2ccccc2)c2ccccc2)cc1
inactive: [4] 87 % of control | [5] 89 % of control | [6] 93 % of control | dose: 100.0 mg/kg/injection, schedule: Q01DX009 (ip), vehicle: saline sonified 90 % of control | dose: 200.0 mg/kg/injection, schedule: Q01DX009 (ip), vehicle: other 93 % of control | dose: 200.0 mg/kg/injection, schedule: Q01DX009 (ip), vehicle: saline sonified 86 % of control | dose: 400.0 mg/kg/injection, schedule: Q01DX009 (ip), vehicle: other 93 % of control | dose: 400.0 mg/kg/injection, schedule: Q01DX009 (ip), vehicle: saline sonified 90 % of control

CC[N](CC)[Ge]([CH2]C)[CH2]C.C[CH2][Ge]([CH2]C)[CH2]C
inactive: dose: 6.25 mg/kg/injection, schedule: Q01DX009 (ip), vehicle: saline 98 % of control and 109 % of control | dose: 12.5 mg/kg/injection, schedule: Q01DX009 (ip), vehicle: saline 98 % of control and 109 % of control | dose: 25.0 mg/kg/injection, schedule: Q01DX009 (ip), vehicle: saline 109 % of control and 114 % of control | [7] 121 % of control | [8] 118 % of control

O=C(N/C(=C\c1ccc2c(c1)OCO2)c1nc2ccccc2s1)c1ccccc1
inactive: dose: 60.0 mg/kg/injection, schedule: Q01DX005 (ip), vehicle: saline with Tween-80 107 % of control | dose: 120.0 mg/kg/injection, schedule: Q01DX005 (ip), vehicle: saline with Tween-80 121 % of control | dose: 240.0 mg/kg/injection, schedule: Q01DX005 (ip), vehicle: saline with Tween-80 123 % of control

Cc1ccc2[nH]c3c(c2c1)-c1ncncc1CC3
inactive: dose: 100.0 mg/kg/injection, schedule: Q04DX002 (ip), vehicle: Klucel (hydroxypropylcellulose) (HPC) 104 % of control | dose: 200.0 mg/kg/injection, schedule: Q04DX002 (ip), vehicle: Klucel (hydroxypropylcellulose) (HPC) 92 % of control

Cc1ccc(S(=O)(=O)NC(=O)n2ccnc2C)cc1
inactive: [1] 97 % of control | [2] 100 % of control | [3] 104 % of control

COc1cccc(/C=C/C(=O)O)c1OC
inactive: dose: 25.0 mg/kg/injection, schedule: Q01DX009 (ip), vehicle: water 98 % of control | dose: 50.0 mg/kg/injection, schedule: Q01DX009 (ip), vehicle: water 91 % of control | dose: 100.0 mg/kg/injection, schedule: Q01DX009 (ip), vehicle: water 94 % of control | dose: 200.0 mg/kg/injection, schedule: Q01DX009 (ip), vehicle: water 100 % of control | dose: 400.0 mg/kg/injection, schedule: Q01DX009 (ip), vehicle: water 98 % of control

CC1C[N+]2(CNC(=O)C3=C(O)C4(O)C(=O)C5=C(O)c6c(O)cccc6C(C)(O)C5CC4C(N(C)C)C3=O)CC(C)O[B-]2(c2ccccc2)O1 (centres undefined)
inactive: [1] 110 % of control | [2] 110 % of control | [3] 100 % of control

O=C(O)C1C(C(=O)O)C2(Cl)C(Cl)=C(Cl)C1(Cl)C2(Cl)Cl.[Fe] (centres undefined)
inactive: dose: 6.25 mg/kg/injection, schedule: Q01DX001 (ip), vehicle: saline with Tween-80 100 % of control | dose: 12.5 mg/kg/injection, schedule: Q01DX001 (ip), vehicle: saline with Tween-80 104 % of control | dose: 25.0 mg/kg/injection, schedule: Q01DX001 (ip), vehicle: saline with Tween-80 109 % of control

Cc1cc(NC(=S)SCc2ccc3c(c2)OCO3)c([N+](=O)[O-])cc1C
inactive: dose: 50.0 mg/kg/injection, schedule: Q01DX009 (ip), vehicle: suspension in saline 98 % of control | dose: 100.0 mg/kg/injection, schedule: Q01DX009 (ip), vehicle: suspension in saline 100 % of control | dose: 200.0 mg/kg/injection, schedule: Q01DX009 (ip), vehicle: suspension in saline 108 % of control

O=C(CCCCl)NN=C(c1ccccc1)c1ccccc1
inactive: dose: 42.0 mg/kg/injection, schedule: Q01DX009 (ip), vehicle: saline with Tween-80 100 % of control | dose: 84.0 mg/kg/injection, schedule: Q01DX009 (ip), vehicle: saline with Tween-80 97 % of control | dose: 168.0 mg/kg/injection, schedule: Q01DX009 (ip), vehicle: saline with Tween-80 95 % of control

CCOC(=O)NC(NC(=O)OCC)c1ccc(OC)cc1
inactive: dose: 100.0 mg/kg/injection, schedule: Q04DX003 (ip), vehicle: saline 100 % of control | dose: 200.0 mg/kg/injection, schedule: Q04DX003 (ip), vehicle: saline 91 % of control | dose: 400.0 mg/kg/injection, schedule: Q04DX003 (ip), vehicle: saline 94 % of control

CCOC(=O)Nc1nc2ccccc2n1CN1CCN(C)CC1
inactive: dose: 25.0 mg/kg/injection, schedule: Q01DX005 (ip), vehicle: Klucel (hydroxypropylcellulose) (HPC) 99 % of control | [1] 102 % of control and 97 % of control | [2] 100 % of control and 107 % of control | [3] 113 % of control and 120 % of control

CC(/C=C/c1ccccc1)=N\NC(N)=O
inactive: [7] 105 % of control | [8] 115 % of control | dose: 200.0 mg/kg/injection, schedule: Q01DX009 (ip), vehicle: saline 118 % of control

CCCCCCCCCCCCOP(=O)(CC(=O)NCc1cc(C(C)(C)C)c(O)c(C(C)(C)C)c1)OCCCCCCCCCCCC
inactive: [9] 92 % of control | dose: 100.0 mg/kg/injection, schedule: Q01DX009 (ip), vehicle: saline with Tween-80 92 % of control | [10] 90 % of control

COc1ccc(OC)c(C=Nc2ccc(S(=O)(=O)Nc3nccc(C)n3)cc2)c1
inactive: dose: 12.5 mg/kg/injection, schedule: Q01DX009 (ip), vehicle: saline with Tween-80 90 % of control | dose: 25.0 mg/kg/injection, schedule: Q01DX009 (ip), vehicle: saline with Tween-80 90 % of control | [9] 87 % of control | [10] 100 % of control
